Literature values in patent US11318148B2, “Preservative-free treprostinil devices” (SteadyMed, Ltd., priority 2014, dated 2022).

Columns and labels:
[1] = in vivo
[2] = has to be kept on ice during administration

- half-life [1]: 3 to 5 min
- stability at room temperature [2]: unstable at room temperature
Structure (SMILES): CCCCC[C@H](O)/C=C/[C@@H]1[C@H]2C/C(=C/CCCC(=O)O)O[C@H]2C[C@H]1O [Flolan]
